From patent publication US20250144067A1, “PERSONALIZED STARVATION THERAPY FOR CANCER” (Faeth Therapeutics, Inc., priority 2021, published 2025)
Counter-ions that a name gives are not always drawn. Like-named read-outs stand apart in the source and are kept apart here.

Legend:
[1] = test system: NCI-H292 lung cancer cells; assay: FDA drug screening, complete media vs cholesterol-free media without statin (TABLE 1); format: cell-based, human
[2] = test system: NCI-H292 lung cancer cells; assay: FDA drug screening, complete media vs cholesterol-free media with simvastatin (TABLE 2); format: cell-based, human
[3] = NCI-H292 cells, cholesterol-free media without statin
[4] = complete vs cholesterol-free media, […]
[5] = NCI-H292 cells, FDA drug library screen, cholesterol-free media with simvastatin 0.04 μM
[6] = NCI-H292 cells, FDA drug library screen, complete media
[7] = complete media minus cholesterol-free media + simvastatin, […]
[8] = Complete minus Cholesterol-free, >0 enhanced anti-cancer activity, about 0 neutral, <0 antagonist
[9] = NCI-H292 cells, drug in cholesterol-free media with simvastatin 0.04 μM
[10] = NCI-H292 cells, drug in complete media
[11] = complete media vs cholesterol-free media + simvastatin (0.04 μM), >0 enhanced anti-cancer activity, about 0 neutral, <0 antagonist
[12] = complete vs cholesterol-free media, greater than 0 enhanced anti-cancer activity, about 0 neutral, below 0 antagonists
[13] = NCI-H292 cells, cholesterol-free media with simvastatin 0.04 μM, cell growth value in FDA drug screen
[14] = NCI-H292 cells, complete media, cell growth value in FDA drug screen
[15] = complete media minus cholesterol-free media + simvastatin, >0 enhanced anti-cancer activity, about 0 neutral, <0 antagonist
[16] = NCI-H292 cells, cholesterol-free media without statin, FDA drug library screen
[17] = NCI-H292 cells, complete media, FDA drug library screen

COc1cc2c3cc1Oc1c(OC)c(OC)cc4c1[C@@H](Cc1ccc(O)c(c1)Oc1ccc(cc1)C[C@@H]3N(C)CC2)N(C)CC4 [Berbamine (dihydrochloride)]
Cholesterol-free [1, 3]: 1.782 | Complete ([1]; NCI-H292 cells, complete media): 1.401 | Difference [1, 4]: −0.38 | Cholesterol-free media + simvastatin (0.04 μM) [2, 5]: 0.2857 | Complete Media [2, 6]: 1.04 | Difference [2, 7]: 0.75

CCOc1cc2ncc(C#N)c(Nc3ccc(OCc4ccccn4)c(Cl)c3)c2cc1NC(=O)/C=C/CN(C)C [Neratinib]
Cholesterol-free [1]: 0.06707 | Complete [1]: 0.1268 | Difference [1]: 0.06 | Cholesterol-free media + simvastatin (0.04 μM) [2]: 0.3387 | Complete Media [2]: 0.3007 | Difference [2]: −0.04

OC[C@@H](O)[C@H](O)[C@@H](O)CO [Xylitol]
Difference [1, 8]: −0.26 | Cholesterol-free [1, 3]: 1.384 | Complete ([1]; NCI-H292 cells, complete media): 1.123 | Cholesterol-free media + simvastatin (0.04 μM) [2, 9]: 1.234 | Complete Media [2, 10]: 1.073 | Difference [2, 11]: −0.16

C=CCN1CCCC1CNC(=O)c1cc2[nH]nnc2cc1OC (centres unmarked) [Alizapride hydrochloride]
Cholesterol-free [1, 3]: 1.222 | Complete ([1]; NCI-H292 cells, complete media): 0.9062 | Difference [1, 12]: −0.32 | Cholesterol-free media + simvastatin (0.04 μM) [2, 13]: 1.019 | Complete Media [2, 14]: 1.057 | Difference [2, 15]: 0.04

COc1cc([C@@H]2c3cc4c(cc3[C@@H](O[C@@H]3O[C@@H]5CO[C@@H](C)O[C@H]5[C@H](O)[C@H]3O)[C@H]3COC(=O)[C@H]23)OCO4)cc(OC)c1OP(=O)(O)O [Etoposide phosphate]
Difference ([1]; Complete minus Cholesterol-free, greater than 0 enhanced anti-cancer activity, about 0 neutral, below 0 antagonist): −0.10 | Cholesterol-free ([1]; NCI-H292 cells, FDA drug library screen, cholesterol-free media without statin): 0.7876 | Complete [1, 6]: 0.6917 | Cholesterol-free media + simvastatin (0.04 μM) [2, 9]: 0.9468 | Complete Media [2, 10]: 0.7461 | Difference [2, 11]: −0.20

O=C1NC(=O)C(c2ccccc2)(c2ccccc2)N1 [Phenytoin (sodium)]
Difference [1, 8]: −0.27 | Cholesterol-free [1, 3]: 1.197 | Complete ([1]; NCI-H292 cells, complete media): 0.9283 | Cholesterol-free media + simvastatin (0.04 μM) ([2]; NCI-H292 cells, cholesterol-free media with simvastatin 0.04 μM, FDA drug library screen (TABLE 2)): 0.8893 | Complete Media ([2]; NCI-H292 cells, complete media, FDA drug library screen (TABLE 2)): 0.8884 | Difference ([2]; complete media minus cholesterol-free media + simvastatin (0.04 μM), >0 enhanced anti-cancer activity, about 0 neutral, <0 antagonist): 0.00

C[C@@H]1CC(=O)NN=C1c1ccc(NN=C(C#N)C#N)cc1 [Levosimendan]
Difference [1, 8]: −0.06 | Cholesterol-free [1, 16]: 1.195 | Complete [1, 17]: 1.131 | Cholesterol-free media + simvastatin (0.04 μM) [2, 5]: 1.165 | Complete Media [2, 6]: 1.044 | Difference [2, 11]: −0.12

CSCCC(N)C(=O)O (racemic) [DL-Methionine]
Difference [1, 8]: −0.06 | Cholesterol-free [1, 16]: 1.381 | Complete [1, 17]: 1.325 | Cholesterol-free media + simvastatin (0.04 μM) [2, 13]: 0.9866 | Complete Media [2, 14]: 1.007 | Difference [2, 15]: 0.02

C[C@H](Cc1cc2c(c(C(N)=O)c1)N(CCCO)CC2)NCCOc1ccccc1OCC(F)(F)F [Silodosin]
Cholesterol-free [1, 3]: 1.295 | Complete ([1]; NCI-H292 cells, complete media): 0.8816 | Difference [1, 12]: −0.41 | Cholesterol-free media + simvastatin (0.04 μM) [2, 5]: 1.21 | Complete Media [2, 6]: 1.074 | Difference [2, 11]: −0.14

Fludarabine (phosphate)
Difference ([1]; Complete minus Cholesterol-free, […]): −0.10 | Complete [1, 6]: 0.9769 | Cholesterol-free media + simvastatin (0.04 μM) ([2]; NCI-H292 cells, cholesterol-free media with simvastatin 0.04 μM, […]): 1.095 | Complete Media ([2]; NCI-H292 cells, complete media, […]): 1.138 | Difference [2, 7]: 0.04

Nc1ncnc2c1ncn2[C@@H]1O[C@H](CO)[C@@H](O)[C@@H]1O [Vidarabine]
Cholesterol-free [1, 3]: 1.542 | Complete ([1]; NCI-H292 cells, complete media): 1.194 | Difference [1, 12]: −0.35 | Cholesterol-free media + simvastatin (0.04 μM) [2, 9]: 0.9857 | Complete Media [2, 10]: 0.8059 | Difference [2, 11]: −0.18

Lasofoxifene (Tartrate)
Cholesterol-free [1, 3]: 1.19 | Complete ([1]; NCI-H292 cells, complete media): 0.7569 | Difference [1, 4]: −0.43 | Cholesterol-free media + simvastatin (0.04 μM) [2, 5]: 0.6494 | Complete Media [2, 6]: 0.9428 | Difference [2, 7]: 0.29
